Results published in ChEMBL document CHEMBL1125762, “Synthesis and pharmacological evaluation of 1-(aminomethyl)-3,4-dihydro-5-hydroxy-1H-2-benzopyrans as dopamine D1 selective ligands” (J Med Chem, 1991).

Columns and labels:
D(2) dopamine receptor = D(2) dopamine receptor (Rattus norvegicus, UniProt P61169); experiment: Binding affinity for dopamine receptor D2
D(1A) dopamine receptor = D(1A) dopamine receptor (Rattus norvegicus, UniProt P18901); experiment: Binding affinity for dopamine receptor D1
D(1) dopamine receptor = D(1) dopamine receptor (Carassius auratus, UniProt P35406); experiment: In vitro inhibition of dopamine stimulated adenylate cyclase
[1] = target: Beta-2 adrenergic receptor (Canis lupus familiaris, UniProt P54833); experiment: Compound was tested in vitro for binding affinity for beta receptor
[2] = target: Serotonin 2 (5-HT2) receptor (Rattus norvegicus, UniProt P30994+P08909+P14842); experiment: Compound was tested in vitro for binding affinity for 5-hydroxytryptamine 2 receptor; format: protein assay
[3] = target: T1, Adrenergic receptor alpha-1 (Homo sapiens, UniProt P35348+P25100+P35368); experiment: Compound was tested in vitro for binding affinity for alpha-1 adrenergic receptor; format: protein assay
T1 sequence (P35348 whole entry): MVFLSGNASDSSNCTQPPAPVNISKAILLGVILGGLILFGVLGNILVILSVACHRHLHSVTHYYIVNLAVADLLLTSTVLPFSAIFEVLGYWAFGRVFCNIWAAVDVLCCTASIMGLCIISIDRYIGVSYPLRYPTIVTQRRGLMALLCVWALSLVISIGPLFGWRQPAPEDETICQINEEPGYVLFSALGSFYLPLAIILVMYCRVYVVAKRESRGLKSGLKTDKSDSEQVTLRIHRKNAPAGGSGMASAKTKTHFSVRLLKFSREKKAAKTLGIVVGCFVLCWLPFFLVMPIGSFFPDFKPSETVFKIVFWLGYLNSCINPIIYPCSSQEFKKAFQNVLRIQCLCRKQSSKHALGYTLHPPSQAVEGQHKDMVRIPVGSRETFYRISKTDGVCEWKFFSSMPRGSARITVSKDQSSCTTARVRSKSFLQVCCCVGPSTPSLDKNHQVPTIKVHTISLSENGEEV
T1 sequence (P25100 whole entry): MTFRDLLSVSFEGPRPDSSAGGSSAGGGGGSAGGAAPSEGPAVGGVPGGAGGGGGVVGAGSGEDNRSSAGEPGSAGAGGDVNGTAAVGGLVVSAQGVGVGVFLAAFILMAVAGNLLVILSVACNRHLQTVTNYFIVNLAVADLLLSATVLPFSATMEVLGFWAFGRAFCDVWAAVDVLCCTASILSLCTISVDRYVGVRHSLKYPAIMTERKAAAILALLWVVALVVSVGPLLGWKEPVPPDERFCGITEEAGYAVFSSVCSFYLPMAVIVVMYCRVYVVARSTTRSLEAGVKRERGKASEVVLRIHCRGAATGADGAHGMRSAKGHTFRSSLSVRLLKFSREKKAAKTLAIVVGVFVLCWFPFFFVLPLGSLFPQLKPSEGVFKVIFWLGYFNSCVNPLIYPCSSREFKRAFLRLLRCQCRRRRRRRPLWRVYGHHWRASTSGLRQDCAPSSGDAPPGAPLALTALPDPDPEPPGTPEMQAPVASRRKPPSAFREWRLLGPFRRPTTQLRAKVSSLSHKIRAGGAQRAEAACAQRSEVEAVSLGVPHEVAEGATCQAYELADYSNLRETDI
T1 sequence (P35368 whole entry): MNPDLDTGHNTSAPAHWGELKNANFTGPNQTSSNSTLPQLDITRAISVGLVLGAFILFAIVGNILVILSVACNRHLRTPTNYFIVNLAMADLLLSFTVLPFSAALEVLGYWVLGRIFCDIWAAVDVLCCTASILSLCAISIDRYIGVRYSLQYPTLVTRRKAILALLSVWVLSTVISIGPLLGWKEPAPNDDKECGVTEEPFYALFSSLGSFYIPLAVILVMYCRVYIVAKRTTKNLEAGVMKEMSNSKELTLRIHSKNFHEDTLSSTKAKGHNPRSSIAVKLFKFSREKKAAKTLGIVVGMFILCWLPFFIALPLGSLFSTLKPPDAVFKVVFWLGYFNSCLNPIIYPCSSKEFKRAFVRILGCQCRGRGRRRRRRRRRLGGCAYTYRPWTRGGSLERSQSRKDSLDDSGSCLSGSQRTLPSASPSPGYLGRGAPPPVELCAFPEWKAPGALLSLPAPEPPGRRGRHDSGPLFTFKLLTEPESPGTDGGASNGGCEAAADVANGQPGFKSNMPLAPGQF

Rattus norvegicus [4] = experiment: Compound was tested for the net contralateral rotations in rats 2 hr after administration of 1 uM/kg dopamine agonist; Activity expressed as net contralateral rotations / 2 hr; format: functional
[5] = target: T2, Adrenergic receptor alpha-2 (Homo sapiens, UniProt P08913+P18825+P18089); experiment: Compound was tested in vitro for binding affinity for alpha-2 adrenergic receptor; format: protein assay
T2 sequence (P08913 whole entry): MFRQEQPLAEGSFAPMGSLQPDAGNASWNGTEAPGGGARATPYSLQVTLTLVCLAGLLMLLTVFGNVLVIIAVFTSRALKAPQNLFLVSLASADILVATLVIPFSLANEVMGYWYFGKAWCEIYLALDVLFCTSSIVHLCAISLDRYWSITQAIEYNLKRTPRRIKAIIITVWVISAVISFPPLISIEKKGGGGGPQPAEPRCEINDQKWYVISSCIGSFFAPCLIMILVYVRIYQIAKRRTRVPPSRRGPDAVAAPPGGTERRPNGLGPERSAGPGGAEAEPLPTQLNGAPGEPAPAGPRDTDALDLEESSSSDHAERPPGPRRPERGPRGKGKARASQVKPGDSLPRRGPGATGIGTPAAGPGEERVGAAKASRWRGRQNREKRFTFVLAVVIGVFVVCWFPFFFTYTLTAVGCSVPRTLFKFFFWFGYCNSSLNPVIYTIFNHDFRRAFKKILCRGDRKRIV
T2 sequence (P18825 whole entry): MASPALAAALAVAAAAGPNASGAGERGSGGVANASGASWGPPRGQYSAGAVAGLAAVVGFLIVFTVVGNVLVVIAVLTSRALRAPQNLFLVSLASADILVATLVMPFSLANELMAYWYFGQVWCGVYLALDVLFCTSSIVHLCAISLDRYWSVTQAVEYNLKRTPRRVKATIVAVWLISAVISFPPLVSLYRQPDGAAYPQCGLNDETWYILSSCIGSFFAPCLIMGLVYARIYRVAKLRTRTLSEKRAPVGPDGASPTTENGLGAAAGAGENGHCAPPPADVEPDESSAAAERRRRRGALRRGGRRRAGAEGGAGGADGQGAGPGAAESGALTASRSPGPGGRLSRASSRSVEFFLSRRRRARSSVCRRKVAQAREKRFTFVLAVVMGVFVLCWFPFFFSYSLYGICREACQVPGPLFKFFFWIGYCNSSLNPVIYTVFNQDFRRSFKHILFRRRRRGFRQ
T2 sequence (P18089 whole entry): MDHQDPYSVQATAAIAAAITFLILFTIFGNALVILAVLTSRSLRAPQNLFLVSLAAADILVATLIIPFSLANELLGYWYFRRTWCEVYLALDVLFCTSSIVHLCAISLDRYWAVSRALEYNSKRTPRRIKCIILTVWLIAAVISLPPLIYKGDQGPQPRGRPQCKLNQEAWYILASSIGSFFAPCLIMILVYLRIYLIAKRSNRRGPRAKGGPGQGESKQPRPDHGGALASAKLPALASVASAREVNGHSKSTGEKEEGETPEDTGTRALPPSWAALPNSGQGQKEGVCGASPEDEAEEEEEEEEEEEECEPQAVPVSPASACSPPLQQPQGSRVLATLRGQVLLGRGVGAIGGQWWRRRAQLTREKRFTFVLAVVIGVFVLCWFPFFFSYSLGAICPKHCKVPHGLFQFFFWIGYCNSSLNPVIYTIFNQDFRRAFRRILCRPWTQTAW

Rattus norvegicus [6] = experiment: Compound was tested for the net contralateral rotations in rats 2 hr after administration of 0.1 uM/kg dopamine agonist; Activity expressed as net contralateral rotations / 2 hr; format: functional
Rattus norvegicus [7] = experiment: Compound was tested for the net contralateral rotations in rats 2 hr after administration of 0.1 umol/kg, predosed with SCH-23390 (0.1 umol/kg sc), 40 min prior to injection of test compound; Activity expressed as net contralateral rotations / 2 hr
[8] = target: Sodium-dependent dopamine transporter (Homo sapiens, UniProt Q01959); experiment: In vitro binding affinity for dopamine uptake site
[9] = target: T3, 5-hydroxytryptamine receptor 1A (Rattus norvegicus, UniProt P19327); experiment: Compound was tested in vitro for binding affinity for 5-hydroxytryptamine 1A receptor
T3 sequence (P19327 whole entry): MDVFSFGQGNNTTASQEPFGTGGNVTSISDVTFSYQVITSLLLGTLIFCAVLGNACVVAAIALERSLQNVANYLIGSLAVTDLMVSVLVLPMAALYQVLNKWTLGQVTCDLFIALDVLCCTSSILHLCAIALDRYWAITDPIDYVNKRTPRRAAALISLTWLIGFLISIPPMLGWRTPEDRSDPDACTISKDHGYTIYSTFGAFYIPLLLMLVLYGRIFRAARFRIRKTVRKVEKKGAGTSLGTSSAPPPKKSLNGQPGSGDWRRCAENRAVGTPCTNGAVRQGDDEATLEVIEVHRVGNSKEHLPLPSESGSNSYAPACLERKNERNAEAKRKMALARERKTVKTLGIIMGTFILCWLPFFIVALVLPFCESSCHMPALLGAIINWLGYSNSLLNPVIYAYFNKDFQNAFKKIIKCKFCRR

Rattus norvegicus [10] = experiment: Compound was tested for the net contralateral rotations in rats 2 hr after administration of 1.7 umol/kg, predosed with SCH-23390 (0.05 umol/kg sc), 40 min prior to injection of test compound; Activity expressed as net contralateral rotations / 2ho; format: functional
Rattus norvegicus [11] = experiment: Compound was tested for the net contralateral rotations in rats, 2 hr after sc administration of 0.43 umol/kg dopamine agonist; Activity expressed as net contralateral rotations / 2 hr; format: functional
Rattus norvegicus [12] = experiment: Compound was tested for the net contralateral rotations in rats 2 hr after sc administration of 1.7 umol/kg dopamine agonist; Activity expressed as net contralateral rotations / 2 hr; format: functional

D(1) dopamine receptor, sequence (P35406 whole entry): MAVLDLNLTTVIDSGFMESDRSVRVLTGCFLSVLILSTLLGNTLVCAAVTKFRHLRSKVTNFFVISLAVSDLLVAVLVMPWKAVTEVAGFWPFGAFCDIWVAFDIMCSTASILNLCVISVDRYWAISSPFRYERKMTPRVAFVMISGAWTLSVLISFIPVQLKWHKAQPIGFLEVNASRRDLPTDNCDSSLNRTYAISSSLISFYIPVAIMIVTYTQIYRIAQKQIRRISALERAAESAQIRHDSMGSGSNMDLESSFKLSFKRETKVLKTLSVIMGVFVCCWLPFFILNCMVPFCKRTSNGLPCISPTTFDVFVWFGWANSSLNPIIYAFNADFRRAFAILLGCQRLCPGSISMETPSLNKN
D(1A) dopamine receptor, sequence (P18901 whole entry): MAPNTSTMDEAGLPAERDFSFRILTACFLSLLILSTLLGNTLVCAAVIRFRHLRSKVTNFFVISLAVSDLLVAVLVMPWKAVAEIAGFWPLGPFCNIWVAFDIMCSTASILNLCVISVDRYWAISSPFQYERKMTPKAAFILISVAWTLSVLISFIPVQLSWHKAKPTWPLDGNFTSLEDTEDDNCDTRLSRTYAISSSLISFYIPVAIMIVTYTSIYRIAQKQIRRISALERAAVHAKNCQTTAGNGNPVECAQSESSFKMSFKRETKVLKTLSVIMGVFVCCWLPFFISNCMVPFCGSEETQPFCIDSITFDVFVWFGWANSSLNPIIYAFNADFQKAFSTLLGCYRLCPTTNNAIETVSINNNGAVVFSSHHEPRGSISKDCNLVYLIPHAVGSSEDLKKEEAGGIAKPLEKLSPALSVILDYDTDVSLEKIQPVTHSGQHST
D(2) dopamine receptor, sequence (P61169 whole entry): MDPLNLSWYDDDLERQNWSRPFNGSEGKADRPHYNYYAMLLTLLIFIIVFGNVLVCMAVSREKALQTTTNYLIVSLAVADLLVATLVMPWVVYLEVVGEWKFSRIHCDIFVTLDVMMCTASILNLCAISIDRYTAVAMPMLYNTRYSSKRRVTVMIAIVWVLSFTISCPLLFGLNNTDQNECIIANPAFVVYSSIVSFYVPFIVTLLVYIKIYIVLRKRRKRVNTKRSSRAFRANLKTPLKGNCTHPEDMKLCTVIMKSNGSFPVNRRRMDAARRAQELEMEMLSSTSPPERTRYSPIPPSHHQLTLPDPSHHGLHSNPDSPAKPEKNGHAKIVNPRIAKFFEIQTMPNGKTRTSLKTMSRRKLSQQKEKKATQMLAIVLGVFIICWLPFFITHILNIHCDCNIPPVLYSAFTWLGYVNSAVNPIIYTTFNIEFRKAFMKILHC
Sodium-dependent dopamine transporter, sequence (Q01959 whole entry): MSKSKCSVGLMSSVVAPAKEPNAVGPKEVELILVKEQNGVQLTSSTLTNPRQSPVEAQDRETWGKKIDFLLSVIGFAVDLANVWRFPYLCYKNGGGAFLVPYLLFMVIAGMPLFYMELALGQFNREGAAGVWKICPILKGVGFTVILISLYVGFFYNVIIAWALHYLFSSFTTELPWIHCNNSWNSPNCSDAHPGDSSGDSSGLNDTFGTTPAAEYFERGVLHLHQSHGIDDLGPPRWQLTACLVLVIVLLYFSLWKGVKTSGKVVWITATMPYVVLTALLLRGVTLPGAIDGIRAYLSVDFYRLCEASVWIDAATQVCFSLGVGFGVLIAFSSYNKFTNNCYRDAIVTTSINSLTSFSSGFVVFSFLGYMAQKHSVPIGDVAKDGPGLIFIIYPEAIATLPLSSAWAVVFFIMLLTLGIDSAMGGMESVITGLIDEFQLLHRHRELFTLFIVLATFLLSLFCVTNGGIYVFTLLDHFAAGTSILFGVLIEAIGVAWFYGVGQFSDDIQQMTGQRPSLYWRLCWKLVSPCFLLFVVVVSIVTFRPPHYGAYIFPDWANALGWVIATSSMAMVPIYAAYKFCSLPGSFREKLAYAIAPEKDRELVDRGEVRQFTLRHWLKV
Beta-2 adrenergic receptor, sequence (P54833 whole entry): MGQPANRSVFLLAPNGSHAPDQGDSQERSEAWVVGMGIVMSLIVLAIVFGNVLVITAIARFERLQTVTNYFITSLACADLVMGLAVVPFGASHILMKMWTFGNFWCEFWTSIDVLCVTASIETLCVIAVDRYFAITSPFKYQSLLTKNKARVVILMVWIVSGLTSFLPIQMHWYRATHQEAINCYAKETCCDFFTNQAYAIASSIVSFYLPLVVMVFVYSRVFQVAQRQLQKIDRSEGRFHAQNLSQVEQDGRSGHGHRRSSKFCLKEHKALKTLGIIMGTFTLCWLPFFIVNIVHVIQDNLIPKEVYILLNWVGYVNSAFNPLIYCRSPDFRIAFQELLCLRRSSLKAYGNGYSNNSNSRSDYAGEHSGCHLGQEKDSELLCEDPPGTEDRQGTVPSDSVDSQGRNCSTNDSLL

Compound | Ki (D(2) dopamine receptor) | Ki (D(1A) dopamine receptor) | Ki (D(1) dopamine receptor) | further results
NC[C@H]1O[C@H](c2ccccc2)Cc2c1ccc(Br)c2O | 1960 nM | 366 nM | 197 nM | 
Cl.NC[C@@H]1O[C@H](c2ccccc2)Cc2c1ccc(Br)c2O | 569 nM | 5.1 nM | 32.4 nM | Ki [1]: 18400 nM; Ki [2]: 6360 nM; Ki [3]: 1820 nM; Activity (Rattus norvegicus [4]): 748; Ki [5]: 360 nM; Activity (Rattus norvegicus [6]): 1007; Activity (Rattus norvegicus [7]): 151; Ki [8]: > 30000 nM; Ki [9]: 312 nM
CCCNC[C@@H]1O[C@H](C2CCCCC2)Cc2c1ccc(C)c2O | 2630 nM | 2820 nM | 454 nM | 
NC[C@@H]1O[C@H](C2CCCCC2)Cc2c1ccc(O)c2O | 1120 nM | 5.4 nM |  | 
CNC[C@@H]1O[C@H](C2CCCCC2)Cc2c1ccc(C)c2O | 4610 nM | 263 nM | 121 nM | 
Br.Cc1ccc2c(c1O)C[C@@H](C1CCCCC1)O[C@H]2CN | > 30000 nM | 86.4 nM | 100 nM | Ki [1]: 19200 nM; Ki [2]: 242 nM; Ki [3]: > 30000 nM; Activity (Rattus norvegicus [4]): 751; Ki [5]: 358 nM; Activity (Rattus norvegicus [6]): 227; Activity (Rattus norvegicus [7]): 4; Ki [8]: 1870 nM; Ki [9]: 54.1 nM
NC[C@@H]1O[C@H](c2ccccc2)Cc2c(O)cccc21 | > 30000 nM | 103 nM | 52.5 nM | 
COc1ccc2c(c1O)C[C@@H](c1ccccc1)O[C@H]2CN | > 30000 nM | 166 nM | 247 nM | 
Cc1ccc2c(c1O)C[C@@H](C1CCCCC1)O[C@H]2CN(C)C | 18000 nM | 284 nM | 125 nM | 
Oc1cc2c(cc1O)[C@@H](c1ccccc1)CNCC2 [(R)-SKF-38393] |  |  |  | Activity (Rattus norvegicus [10]): 47; Activity (Rattus norvegicus [11]): 241; Activity (Rattus norvegicus [12]): 608
